According to ChEMBL document CHEMBL1201862, “PubChem BioAssay data set” (2004):
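These data come from cells grown in 96-well plates and exposed to compound for 48 hours at five concentrations. GI50 = concentration required for 50% inhibition of growth.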 The source made the active and inactive calls. No stated cut-off is given here; in the data, active = GI50 up to about 1.1 µM and inactive = higher.

What was measured:
Experiment in all cases: NCI tumour cell line growth inhibition, 48 h
OVCAR-5 = system: OVCAR-5
UACC-62 = system: UACC-62
HOP-62 = system: HOP-62
COLO 205 = system: COLO 205
SNB-19 = system: SNB-19
TK-10 = system: TK-10
KM-20L2 = system: KM-20L2
ACHN = system: ACHN
MOLT-4 = system: MOLT-4
SW-620 = system: SW-620
HOP-92 = system: HOP-92
KM12 = system: KM12
HL-60 = system: HL-60
DMS-114 = system: DMS-114
NCI-H226 = system: NCI-H226
OVCAR-3 = system: OVCAR-3
HCT-15 = system: HCT-15
IGROV-1 = system: IGROV-1
HOP-18 = system: HOP-18

Structure (SMILES)	GI50 (OVCAR-5)	GI50 (UACC-62)	GI50 (HOP-62)	GI50 (COLO 205)	GI50 (SNB-19)	GI50 (TK-10)	GI50 (KM-20L2)	GI50 (ACHN)	GI50 (MOLT-4)	GI50 (SW-620)	GI50 (HOP-92)	GI50 (KM12)	GI50 (HL-60)	GI50 (DMS-114)	GI50 (NCI-H226)	GI50 (OVCAR-3)	GI50 (HCT-15) [µM]	GI50 (IGROV-1)	GI50 (HOP-18)
CN1CCC(O)C(CNC23CC4CC(CC(C4)C2)C3)C1 (centres undefined)	> 100 µM (inactive)	> 100 µM (inactive)	> 100 µM (inactive)	> 100 µM (inactive)	> 100 µM (inactive)	> 100 µM (inactive)	59 µM (inactive)	> 100 µM (inactive)	> 100 µM (inactive)	> 100 µM (inactive)	85.1 µM (inactive)	> 100 µM (inactive)	> 100 µM (inactive)	> 100 µM (inactive)	> 100 µM (inactive)				
O=C(N/C(=C\c1cc(Cl)ccc1Cl)c1nc2ccccc2[nH]1)c1ccccc1	52.2 µM (inactive)	38.9 µM (inactive)			46.9 µM (inactive)	93.3 µM (inactive)	34 µM (inactive)	33.3 µM (inactive)	14.9 µM (inactive)	22 µM (inactive)	8.41 µM (inactive)	27.4 µM (inactive)	21.2 µM (inactive)	35.3 µM (inactive)		36.3 µM (inactive)	24	> 10 µM (inactive)	
Cc1c(Cl)cccc1NC(=O)C(=O)C(C(=O)c1ccccc1-c1ccccc1)C1OC(=O)c2ccccc21 (centres undefined)	22.5 µM (inactive)	17.9 µM (inactive)	16.3 µM (inactive)	20.2 µM (inactive)		28.6 µM (inactive)	23.7 µM (inactive)		14.3 µM (inactive)	21.3 µM (inactive)	15.2 µM (inactive)	18.5 µM (inactive)	16.8 µM (inactive)	16 µM (inactive)	3.94 µM (inactive)	16 µM (inactive)		32.1 µM (inactive)	
CC1CCC[P+](Cc2ccccc2)(c2ccccc2)CC1 (centres undefined)	> 100 µM (inactive)	25 µM (inactive)	> 100 µM (inactive)	40.4 µM (inactive)	46.5 µM (inactive)	> 100 µM (inactive)	50.6 µM (inactive)	> 100 µM (inactive)	78.5 µM (inactive)	94.4 µM (inactive)			14.8 µM (inactive)	18.5 µM (inactive)			> 100	39 µM (inactive)	0.078 µM (active)
[C-]#[N+]C(C)(C)C[C@H]1CC(C)C2CCC(C)C3([N+]#[C-])CCC(=C)C1[C@H]23 (some centres undefined)	0.288 µM (active)	2.82 µM (inactive)	2.55 µM (inactive)	0.166 µM (active)	2.22 µM (inactive)	5.62 µM (inactive)	5.36 µM (inactive)	0.169 µM (active)	0.316 µM (active)	5.08 µM (inactive)	0.106 µM (active)	0.308 µM (active)	0.601 µM (active)		2.32 µM (inactive)	2.36 µM (inactive)		1.34 µM (inactive)	0.046 µM (active)
CCOCN1COCN(C)C1=O	> 100 µM (inactive)	> 100 µM (inactive)	> 100 µM (inactive)	> 100 µM (inactive)	> 100 µM (inactive)	> 100 µM (inactive)	> 100 µM (inactive)	> 100 µM (inactive)		> 100 µM (inactive)	> 100 µM (inactive)	> 100 µM (inactive)			> 100 µM (inactive)	> 100 µM (inactive)	> 100	> 100 µM (inactive)	> 100 µM (inactive)
Cn1c(=O)nc2n(-c3cc(Cl)ccc3Cl)c3ccccc3nc-2c1=O	13 µM (inactive)	1.61 µM (inactive)	12 µM (inactive)	1.82 µM (inactive)	4.67 µM (inactive)	12.3 µM (inactive)	2.93 µM (inactive)	0.906 µM (active)	8.02 µM (inactive)	2.18 µM (inactive)		5.58 µM (inactive)		2.11 µM (inactive)	7.69 µM (inactive)	2.95 µM (inactive)	3.8	13 µM (inactive)	12.4 µM (inactive)
O=c1c2ccccc2n2n1CC(O)C2 (centres undefined)	> 100 µM (inactive)	0.641 µM (active)	> 100 µM (inactive)	> 100 µM (inactive)	> 100 µM (inactive)	> 100 µM (inactive)	> 100 µM (inactive)	2.14 µM (inactive)	> 100 µM (inactive)	> 100 µM (inactive)	> 100 µM (inactive)	> 100 µM (inactive)	> 100 µM (inactive)		> 100 µM (inactive)	> 100 µM (inactive)	> 100	> 100 µM (inactive)	> 100 µM (inactive)
COc1ccc(C#CCC(OC2OC(CO)C(O)C(O)C2O)C(O)c2ccc(OC)c(OC)c2)cc1OC (centres undefined)	> 100 µM (inactive)	61.7 µM (inactive)	> 100 µM (inactive)	> 100 µM (inactive)	> 100 µM (inactive)		> 100 µM (inactive)	> 100 µM (inactive)	> 100 µM (inactive)	> 100 µM (inactive)		> 100 µM (inactive)	61.1 µM (inactive)		> 100 µM (inactive)	> 100 µM (inactive)	> 100	> 100 µM (inactive)	> 100 µM (inactive)
